# Experimental data reported in PMC10879502, “Linking ATP and allosteric sites to achieve superadditive binding with bivalent EGFR kinase inhibitors” (Communications Chemistry, 2024).
# Values joined by “and” are separate entries in the source; they are usually repeats but may differ in a detail not shown here. Equal entries are not always repeated. Where two headings read alike, the source gives them in different places.
# Legend:
# [1] = molecular target: T1, EGFR L858R/T790M/C797S (LRTMCS) kinase domain (Homo sapiens, UniProt P00533, C797S/L858R/T790M); assay: HTRF KinEASE-TK kinase activity assay; format: biochemical
# T1 construct: The EGFR kinase domain (residues 696–1022) was cloned into pTriEx; 6xHis (N, cleaved yes); GST (N, cleaved yes); made in house; host or cells: SF9 insect cells, baculovirus
# [2] = molecular target: T2, EGFR L858R/T790M (LRTM) kinase domain (Homo sapiens, UniProt P00533, L858R/T790M); assay: HTRF KinEASE-TK kinase activity assay; format: biochemical
# T2 construct: The EGFR kinase domain (residues 696–1022) was cloned into pTriEx; 6xHis (N, cleaved yes); GST (N, cleaved yes); made in house; host or cells: SF9 insect cells, baculovirus
# [3] = tested on: Ba/F3 cells, LR/TM/CS EGFR; settings: Ba/F3 ref 4 Wittlinger and Heppner; cited from earlier work
# Ba/F3 cells, L858R EGFR = settings: Ba/F3 ref 4 Wittlinger and Heppner; read-out: EGFR EC50, LR; cited from earlier work
# [4] = tested on: Ba/F3 cells, wildtype EGFR; settings: Ba/F3 ref 4 Wittlinger and Heppner; read-out: EGFR EC50, wt; cited from earlier work
# [5] = tested on: Ba/F3 cells, L858R/T790M EGFR; settings: Ba/F3 ref 4 Wittlinger and Heppner; read-out: EGFR EC50, LR/TM; cited from earlier work
# [6] = Table S1, ATP 100 µM, read-out: IC50, LRTM
# T2 sequence (P00533 696-1022 T790M/L858R): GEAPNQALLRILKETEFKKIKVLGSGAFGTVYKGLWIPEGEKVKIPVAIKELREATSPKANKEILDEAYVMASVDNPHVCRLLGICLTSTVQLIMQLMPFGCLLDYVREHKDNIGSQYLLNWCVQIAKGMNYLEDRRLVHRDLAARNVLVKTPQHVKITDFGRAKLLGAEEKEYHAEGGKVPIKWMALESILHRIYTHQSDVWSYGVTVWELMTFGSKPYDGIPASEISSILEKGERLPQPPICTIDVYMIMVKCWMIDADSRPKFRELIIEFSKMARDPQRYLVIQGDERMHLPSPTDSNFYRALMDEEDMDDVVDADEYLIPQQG
# T1 sequence (P00533 696-1022 T790M/C797S/L858R): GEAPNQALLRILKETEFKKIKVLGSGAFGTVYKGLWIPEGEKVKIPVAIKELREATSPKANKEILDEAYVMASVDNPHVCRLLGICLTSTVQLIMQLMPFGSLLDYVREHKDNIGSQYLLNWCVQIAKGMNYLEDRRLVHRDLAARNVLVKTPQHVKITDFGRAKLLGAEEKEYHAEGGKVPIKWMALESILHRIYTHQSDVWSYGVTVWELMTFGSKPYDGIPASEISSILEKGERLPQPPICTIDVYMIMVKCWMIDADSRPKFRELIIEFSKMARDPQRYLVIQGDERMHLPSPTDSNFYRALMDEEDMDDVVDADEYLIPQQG
compound,measurement,setting,value
"CSc1nc(-c2ccc(F)cc2)c(-c2ccnc(NC(C)=O)c2)[nH]1 [Compound 5, reference compound]",IC50,"[1]; enzyme 0.02 nM, ATP 100 µM, read-out: Biochemical EGFR IC50, LRTMCS",6000 ± 500 nM
same,IC50,"[1]; read-out: IC50, LRTMCS",6000 to 10000 nM
same,IC50,[2]; [6],6000 to 10000 nM and ≥ 6000 nM
same,IC50,"[2]; enzyme 0.02 nM, ATP 100 µM, read-out: Biochemical EGFR IC50, LRTM",5800 ± 300 nM
C=CC(=O)Nc1ccc(OC)c(Nc2cc(-c3[nH]c(SC)nc3-c3ccc(F)cc3)ccn2)c1 [Compound 7],EC50,[3],1600 ± 200 nM
same,EC50,"Ba/F3 cells, L858R EGFR",< 1 nM
same,EC50,[4],20 ± 6 nM
O=C1Nc2c(cccc2C(=O)Nc2ccccc2)Nc2ccccc21 [Compound 10],"IC50, LRTM","[2]; Table S1, ATP 100 µM",virtually inactive
same,IC50,[2]; [6],≥ 10000 nM
C=CC(=O)Nc1cc(Nc2nccc(-c3cn(C)c4ccccc34)n2)c(OC)cc1N(C)CCN(C)C [AZD9291],EC50,[3],1200 ± 130 nM
same,EC50,"Ba/F3 cells, L858R EGFR",3.3 ± 0.6 nM
same,EC50,[5],8 nM
same,EC50,[4],110 ± 40 nM
COc1ccc2c(c1)C(=O)Nc1c(cccc1C(=O)Nc1nccs1)N2 [Compound 12],IC50,[2]; [6],≥ 10000 nM
